Assay results: patent US12656355B2, “Two phase indicator displacement assay” (The Florida State University Research Foundation, Inc., priority 2022, dated 2026)

Tests used:
Type in all cases: physicochemical
[1] = Partitioning indicator displacement assay (PIDA), CTAB/octanol drops with blue 1 dye indicator
Excerpt: The organic drops with fully dissolved indicator were exposed to an aqueous phase containing the target analyte. Over time the target analyte displaced the indicator and partitioned into the organic phase. In this experiment, the sensor had various concentrations of CTAB dissolved into the organic phase and used the maximum saturation ratio of blue dye to CTAB (Mechanism paper) to saturate each organic phase solution with the indicator, blue FCF dye. The displacement of blue dye from the organic phase was measured by monitoring optical transmittance using a color camera.
Five concentrations (60 mM, 30 mM, 15 mM, 7.5 mM, and 3.75 mM) of CTAB in octanol were placed in a tube along with 50 μM of blue dye dissolved in D.I. water, set on a shaker and allowed to equilibrate. An array was made with a sample of each concentration with the blue dye; with 11 drops (replicates) of each concentration and viewed using a DinoLite microscope. Four-hundred μM of aqueous red dye was flowed into the array and a picture was taken before addition of red dye and then every 5 seconds over a 15 minute period. […] Images were analyzed in imageJ, using […] within each replicate and 25 points for background analysis. The replicates were then separated by channel as gray values of the micrographs, and data normalized into absorbance values by subtracting the original dye free data from each replicate. The replicates were averaged per concentration and the data was transferred into percent transmittance using the formula […].
The organic solute cetyltrimethylammonium bromide (CTAB) was purchased from Sigma-Aldrich (St. Louis, USA). Erioglaucine disodium salt (Blue 1) was purchased from Sigma-Aldrich (St. Louis, MO, USA). 10 mL of 6 mM, 3 mM, 1.5 mM, 0.75 mM, and 0.375 mM blue 1 dye dissolved in deionized water and added to separate tubes containing 2 mL of different concentrations of CTAB in octanol (60 mM, 30 mM, 15 mM, 7.5 mM, and 3.75 mM), set on a shaker and allowed to equilibrate. After equilibrating for one week, the organic layer of each CTAB concentration containing the blue 1 dye was used to make the microarray.
50 nL octanol drops containing CTAB and blue 1 dye were placed onto microscope slides manufactured by Azer Scientific (Unifrost) using 0.1-10 μL disposable sterile pipet tips (VWR). A barrier of 0.3 mm PDMS was used as a spacer between the slide and cover slip (25 mm×25 mm) manufactured by VWR. Approximately 135 μL of analyte solution was added to the flow cell and moved quickly through the flow cell.
Samples were imaged with a digital microscope (Dino-Lite Pro2 AD-413T or Dino-Lite Edge AM4115ZT) at 100 Å˜ magnification. For imaging PIDA assays, a portable backlight stage (Dino-Lite MSBL-ZW1R) was used as a white light source and positioned under the bottom of the slide to illuminate the sample. Images for measurement of the transmittance were captured in brightfield mode. The time dependent partitioning was recorded at one frame per 20 second intervals.
Images were analyzed in imageJ, using 10 points within each replicate and 25 points for background analysis. The replicates were then separated into different RGB channels as gray values of the micrographs. The data was then normalized into transmittance values by subtracting the original dye free data from each replicate. The data was then converted into absorbance using the formula […]. Using the absorbance data, and the measured initial blue dye concentrations, the data was converted to blue dye concentration and then the replicates were averaged per concentration and the standard deviation was calculated. Graphs showing the separate channels of the micrographs, with the red color (b) or blue color (e) that was viewable with the DinoLite, and how they differed with concentration (B and E). The graphs are made from each of the 5 concentrations with their associated normalized absorbance values. […]

[2] = Cross-polarized microscopy of CTAB containing octanol droplets exposed to aqueous dye; details: for birefringent phase formation under crossed polarizers: CTAB containing droplet arrays exposed to dye (FIGS. 6A-6B); for anisotropic phase (birefringent ring) formation, single-dye system: 400 uM red dye only or 50 uM blue dye only, CTAB drops 7.5-60 mM, ring at 30 mM CTAB or higher
Description: Also, it can be observed that there is formation of an anisotropic phase in the 30 mM CTAB drops in the red and blue dye and the red dye only systems before the red dye fully partitions into the organic phase of the drop around 5 minutes. After 5 minutes, as the red dye continues to partition into the organic phase, this anisotropic phase seems to disappear. This can be observed by observing the absence of the anisotropic phase at 10 minutes and all later times for the 30 mM CTAB drops in the red and blue dye and the red dye only systems. […] This pattern of anisotropic phase formation before the red dye partitions supports the kinetic barrier mechanism which depends on the formation of some anisotropic phase on the interface of the drops with high CTAB concentration that hinders the red dye from partitioning in and allows the blue dye to partition in at a faster rate resulting in the observed high CTAB concentration blue dye selectivity and the low CTAB concentration red dye selectivity in the Bell, 2020 study.
Erioglaucine disodium salt (Blue 1) was purchased from Sigma-Aldrich (St. Louis, MO, USA). Allura red AC (Red 40) was obtained from TCI (Tokyo, Japan). For the birefringent ring experiments shown in FIG. 3, 400 uM red 40 dye and 50 uM blue 1 dye were dissolved in D.I. water. For the equilibrium tube experiment, dye concentrations were chosen based on the assumption that one dye molecule can be sequestered for every two CTAB molecules. The dye concentrations are chosen such that once this criterion is met, there will be enough dye left in the aqueous phase to be detected by a spectrophotometer so that the aqueous phase solution will have concentrations of 1700 uM, 850 uM, 425 uM, 213 uM, 106 uM for both red 40 dye and blue 1 dye.
The different lipid solutions were microarrayed using 0.1-10 μL disposable sterile pipet tips (VWR) directly onto the substrate. Drops were 0.1 uL in volume and only had contact with the bottom glass slide. After tapping the microarray onto the substrate, 0.3 mm thick PDMS was used as a spacer between the substrate and the cover. The two spacers will be fixed 1.8 cm apart onto the substrate. The coverslip will be placed carefully onto two spacers. Microscope slides manufactured by Azer Scientific (Unifrost) will be used as substrates. Microscope cover glasses (25 mm Å˜25 mm) manufactured by VWR will be used as slipcovers. Approximately 130 μL of aqueous solution was added to the right side of the flow cell and moved quickly through the flow cell. Prior to experiments, test samples will be incubated in 1 mL of deionized water to test for stability.
The blue 1 dye and red 40 dye used wavelengths of 629 nm and 501 nm respectively for absorbance measurements. Microarray samples requiring 30 min or less were imaged with a digital microscope (Dino-Lite Pro2 AD-413T or Dino-Lite Edge AM4115ZT) at 100 Å˜ magnification. For imaging lipid microarrays, a portable backlight stage (Dino-Lite MSBL-ZW1R) was used as a white light source and positioned under the bottom of the slide to illuminate the sample.

[3] = Surfactant mediated selective dye partitioning octanol/water in tubes (non-equilibrated); details: mixture of red and blue dye in water, 4-48 hours
Description: Herein, detecting selective partitioning into droplets in a microfluidic device was scaled up to millimeter volumes in tubes, as shown in FIGS. 15A-15B and FIGS. 16A-16B. The selective partitioning behavior of the two dyes between the octanol and water phases was studied in test tubes (FIGS. 15A-15B), and dye concentrations quantified optically. First, solutions of CTAB in octanol and both dyes in water were prepared separately. Then both the aqueous and organic solutions were combined into one tube. After some time, one or both dyes partitioned into the organic phase. […] Due to the larger scale of the experiment, it took between 4-48 hours to observe the selectivity, as compared to 1-10 minutes in the microfluidic setup. (Bell, 2020.) A question about the mechanism of this surfactant mediated molecular recognition was then whether one dye is thermodynamically favored to partition into the octanol in the presence of CTAB or whether it is kinetically driven. […]
(§1) Erioglaucine disodium salt (Blue 1) was purchased from Sigma-Aldrich (St. Louis, MO, USA). […] The dye concentrations are chosen such that once this criterion is met, there will be enough dye left in the aqueous phase to be detected by a spectrophotometer so that the aqueous phase solution will have concentrations of 1700 uM, 850 uM, 425 uM, 213 uM, 106 uM for both red 40 dye and blue 1 dye.

[4] = Equilibrium dye partitioning octanol/water with CTAB (tubes, absorbance of aqueous phase); details: for stoichiometric ratio, CTAB molecules needed to extract each dye molecule: calculated from dye left in the water after extraction, where not all dye was extracted
Excerpt: To examine the dye partitioning at equilibrium, the two-phase system at various CTAB concentrations, samples were left on a shaker for one week followed by centrifugation and optical characterization of the aqueous phase by absorbance spectroscopy (FIGS. 16A-16B). Tubes containing only the red dye and only blue dye were included in the experiment as well as tubes with the dye mixture. […] CTAB has a net charge of +1 whereas both dye molecules have a net charge of −2. Thus, two positively charged CTAB can effectively balance the negative charge of the dye molecules resulting in a zero net charge for a complex of two CTAB and one dye molecule.
In order to further study the equilibrium state at high CTAB concentrations, the setup was used to allow for observation of the equilibrated state at high CTAB concentrations with excess dye in the water. Using the previously calculated dye ratios needed for maximum saturation in the organic phase, the dye concentrations were chosen so that it would be impossible for both red and blue dye to fully partition into the organic phase. Tubes with a range of concentration from 3.75 mM to 60 mM CTAB dissolved in octanol and deionized water with blue and red dye concentrations ranging from 106 μM to 1700 μM. By observing which dye is left in the aqueous phase after equilibrium is reached, it can be determined which dye is more thermodynamically favorable in the organic phase at equilibrium. If the mechanism for the blue dye selectivity at high CTAB concentrations is thermodynamic in nature and depends on the formation of micelles in the organic phase, then at high CTAB concentrations the dye remaining in the aqueous phase should be the red dye and at low CTAB concentrations, the dye remaining in the aqueous phase should be the blue dye. However, if the mechanism is kinetic and relies on the formation of an aggregation phase at the interface of the two phases, then at all concentrations of CTAB the dye remaining in the aqueous phase should be the blue dye. […] From this it was concluded that the red dye is thermodynamically favored to partition into the CTAB containing organic phase.
as §1, with “USA). Allura red AC (Red 40) was obtained from TCI (Tokyo, Japan).” for “USA).”, “dye. […]” for “dye.”
The blue 1 dye and red 40 dye used wavelengths of 629 nm and 501 nm respectively for absorbance measurements. […]

[5] = 3.75 mM CTAB drops, blue 1 dye indicator, red 40 dye analyte, from TRF fitting

CCCCCCCCCCCCCCCC[N+](C)(C)C.[Br-] [CTAB, cetyltrimethylammonium bromide]
delay in onset time of displacement [1, 5]: no delay in onset time
rate of displacement (decay constant) [1, 5]: 0.48 s⁻¹
rate of displacement (decay constant) ([1]; 7.5 mM CTAB drops, blue 1 dye indicator, red 40 dye analyte, from TRF fitting): 0.42 s⁻¹
delayed onset time of displacement ([1]; 30 mM CTAB drops, blue 1 dye indicator, red 40 dye analyte, from TRF fitting): 7.76 min
displacement rate ([1]; 30 mM CTAB, blue 1 dye indicator, red 40 dye analyte, from TRF fitting): 0.07 s⁻¹

O=S(=O)([O-])c1ccc(N=Nc2c(O)ccc3cc(S(=O)(=O)[O-])ccc23)cc1.[Na+].[Na+] [Sunset Yellow FCF]
birefringent phase formation under crossed polarizers [2]: not

CCN(Cc1cccc(S(=O)(=O)[O-])c1)c1ccc(C(=C2C=CC(=[N+](CC)Cc3cccc(S(=O)(=O)[O-])c3)C=C2)c2ccccc2S(=O)(=O)[O-])cc1.[Na+].[Na+] [blue dye, Erioglaucine disodium salt]
selective partitioning into the octanol phase ([3]; high CTAB concentrations (30 mM and 60 mM) in octanol): selectively partitioned into the octanol phase
stoichiometric ratio, CTAB molecules needed to extract each dye molecule [4]: approximately 2
anisotropic phase (birefringent ring) formation, single-dye system ([2]; disodium salt): no anisotropic phase formation
anisotropic phase (birefringent ring) formation, single-dye system ([2]; listed as Blue Dye, disodium salt): doesn't cause a ring

COc1cc(S(=O)(=O)[O-])c(C)cc1N=Nc1c(O)ccc2cc(S(=O)(=O)[O-])ccc12.[Na+].[Na+] [red dye, Allura red AC]
selective partitioning into the octanol phase ([3]; CTAB 0.5 mM and 1 mM in octanol): selectively partitioned into the octanol phase
partitioning at equilibrium with excess dye in the water ([4]; 3.75 mM to 60 mM CTAB in octanol, blue and red dye 106 μM to 1700 μM, all concentrations tested): preferentially partition into the organic phase
stoichiometric ratio, CTAB molecules needed to extract each dye molecule [4]: approximately 2
partitioning at equilibrium ([4]; low CTAB concentration (<15 mM), shaker one week): partitioned into the octanol phase
anisotropic phase (birefringent ring) formation, single-dye system [2]: formation of an anisotropic structure
anisotropic phase (birefringent ring) formation, single-dye system ([2]; listed as Allura Red Dye): causes a ring
birefringent phase formation under crossed polarizers [2]: birefringent phase forming

[Cl-].[Na+] [sodium chloride]
blue dye indicator displaced ([1]; 50 mM analyte, after 10 minutes, 7.5 mM CTAB containing octanol drops (FIG. 7B)): ~48.3%
